Data on 87 compounds can be found in a melting point compilation (Tetko et al.; mined from patent text by program, amines drawn as free bases though some values may be those of a salt).

For `CN1c2c(occ(CO)c2=O)-c2ccccc2S1(=O)=O`, the melting point (in general, the temperature of the solid-liquid transition) lay within 201 to 205 °C.
Regarding `COC(=C1NC(=O)C(=NO)C1=O)c1ccccc1`, the melting point worked out at 174 °C.
Regarding `COc1ccccc1C(=O)Nc1ccc(-n2nc(C(F)(F)F)cc2C(F)(F)F)cc1`, the melting point was 100 to 102 °C.
The figure for `CCc1cc(NCc2ccc(-c3ccccc3C#N)cc2)n2ccnc2n1` is 99 to 100 °C.
As for `Nc1ncc(CCCCCc2cccc3ccccc23)c(N)n1`, the melting point was in the range of 128 to 133 °C.
As to `COc1ccc(C(=O)Nc2ccccc2)cc1NCc1ccc(-c2ccccc2)cc1`, the melting point was in the range of 222 to 223 °C.
In turn, `CC(C)Oc1cccc(N2CC(=O)NC(=O)N2)c1` displayed a melting point of 170 to 172 °C.
`CN1CCC2(CC1)NCc1cc(C(C)(C)C)cc(I)c1O2` yielded a melting point of 155 to 156 °C.
`CC1(C)CCC(N2c3ccccc3Oc3ccc(C(F)(F)F)cc32)=N1` showed a melting point of 64 to 67 °C.
To `COC(=O)c1cccc2nc(SCCCCCC(=O)Nc3c(SC)cc(C)nc3SC)oc12` belongs 141 to 142 °C; to `CCOC(=O)c1sc2ccc(Br)cc2c1C`, 87 to 88 °C.
In the case of `CC(=O)Nc1ccc(OC(F)(F)C(F)F)cc1`, the melting point fell in the range of 121 to 122 °C.
Compound `CCOc1ccccc1[C@H]1O[C@H](CC(=O)O)C(=O)N(CC(C)C)c2ccc(Cl)cc21` (relative stereo) displayed a melting point of 190 to 192 °C.
Compound `N#Cc1cc(F)ccc1N1CCNCC1` yielded a melting point of 83 to 83.5 °C.
The figure for `COc1ccc(C(=O)NNC(C)=N)cc1` is 179 to 181 °C; for `CCCCCCCCCCCCCCCCCCCCC1Cc2cc(C(=O)O)ccc2N1` (racemic) it is 110 to 115 °C; for `C=C(Cc1ccccc1)C(=O)NCC(=O)O` it is 82 °C.
`COC(=O)C(O)(c1ccc(C)cc1)c1ccc(C)cc1` had a melting point of 83 to 84 °C.
In the case of `O=c1[nH]c(=O)n(C2CC(F)C(CO)O2)cc1CO` (configuration not stated), the melting point amounted to 184 °C.
The figure for `CCCCOc1ncc(-c2ccco2)cc1-c1nc2c(CC)n(CCOC)nc2c(=O)[nH]1` is 154 to 155 °C.
The figure for `COc1ccc(CCOc2cncc(-c3cccc(C(=O)O)c3)c2)cc1OC` is 181 to 182 °C.
`CS(=O)(=O)c1cccc(Nc2cc(-c3ccc(C(F)(F)F)cc3)ncn2)c1` came in with a melting point of 204 to 205 °C.
As for `CCCN=C(N)Nc1ccnc(S(C)=O)n1` (configuration not stated), the melting point lay in the range of 179 to 180 °C.
`CN1C(=O)c2ccccc2N=C(N)C1c1ccccc1` (configuration not stated) came in with a melting point of 282 to 286 °C.
To `CCCOC(=O)C1=NN(c2ccccc2)C(C(=O)OCCC)=NN1c1ccccc1` belongs 82.5 to 83 °C; to `NC(=O)[C@@H]1[C@H](Nc2c(Br)cnc3[nH]c(-c4cncnc4)nc23)[C@H]2C=C[C@@H]1C2`, greater than 300 °C; to `CC(=O)NC(NNc1ccccc1)C(=O)NCc1ccccc1` (configuration not stated), 132 to 134 °C.
The figure for `CCC[C@H]1CC[C@H](CCCOc2ccc(C(=O)O[C@H](c3ccccc3)[C@H](OC(=O)c3ccc(OCCC[C@H]4CC[C@H](CCC)CC4)cc3)c3ccccc3)cc2)CC1` is 75 °C; for `CCCCCCCC(Oc1ccc(C(C)CC)cc1)C(=O)Nc1c(-c2ccccc2)nc2ccccc2c1C(=O)OC` (configuration not stated) it is 89 to 91 °C; for `COC(=O)CC1Sc2ccc(N)cc2CN(CCc2ccccc2)C1=O` (configuration not stated) it is 126 to 129 °C.
The figure for `CCCCc1oc2ccccc2c1C(=O)c1ccc(NS(=O)(=O)c2cccnc2)cc1` is 130 °C; for `CCN1c2ncccc2C(N(C)C)=Nc2c(C)cc(C)nc21` it is 150 to 152 °C.
In turn, `O=C1COCc2cc(-c3ccccc3)ccc21` yielded a melting point of 127 to 128 °C.
Compound `COc1ccc(SC2=C(C(=O)NO)CCC2=CCCc2ccccc2)cc1OC` displayed a melting point of 44 to 46 °C.
The figure for `c1cn(CCOc2ccc(-c3nnn[nH]3)cc2)cn1` is 196 to 197 °C.
In turn, `O=C1CCCc2cc(Sc3cccc(F)c3)ccc21` had a melting point of 66.2 to 66.7 °C.
In turn, `CC(C)(C)c1nnc(NC(=O)CC(=O)CBr)s1` gave a melting point of 128 to 130 °C.
The figure for `CC1(c2nn(-c3c(Cl)cc(C(F)(F)F)cc3Cl)cc2C#N)CC1(Cl)Cl` (configuration not stated) is 97 to 98.5 °C; for `COC(=O)c1ccccc1Nc1c(Cl)ccc(C)c1Cl` it is 130 to 131 °C.
`CCN1CC2CN(CC)CC(C1)C2O` (configuration not stated) yielded a melting point of 61.5 °C.
For `O=C1CCC(Nc2nccc(-n3nnc4ccccc43)n2)CC1`, the melting point was in the range of 205 to 206 °C.
As for `Cn1nc(-c2ccccc2)nc1-c1ccccc1CO`, the melting point came out at 122 °C.
`O=C1OC(O)(Nc2ccccc2Br)C(c2ccccc2)C1c1ccccc1` (configuration not stated) came in with a melting point of 162 to 164 °C.
In turn, `CCOC(=O)c1ncc2[nH]c3ccc(C(C)OC)cc3c2c1C` (configuration not stated) displayed a melting point of 96 to 97 °C.
For the compound `COc1cc(OC)c([N+](=O)[O-])nc1NCCO`, the melting point was determined as 131 °C.
In turn, `CC1(C)CCc2c(N3CCOCC3)nc3sc4c(NCc5ccc(S(N)(=O)=O)cc5)ncnc4c3c2C1` showed a melting point of 258 to 260 °C.
The figure for `N#CC(C#N)=C1Sc2nc3ccc([N+](=O)[O-])cc3nc2S1` is 220 to 222 °C; for `Cn1c([N+](=O)[O-])cnc1-c1nnc2ccc(N3CCOCC3)nn12` it is 240 to 242 °C.
To `C=CCS(=O)c1ncc(Cl)cn1` (configuration not stated) belongs 82 °C; to `CCCCCCCNC(=O)Nc1ccc(N2CCCC2)cc1C(=O)NCC1CCN(C(c2ccccc2)c2ccccc2)CC1`, 182 to 184 °C.
`COc1ccc2c(c1)N(C)C(=O)N(c1ccc(Cl)cc1)S2(=O)=O` displayed a melting point of 167 to 168 °C.
Consider `COc1cc2cc(CO)c(CO)c(-c3ccnc(-n4c(=O)cc(C(=O)O)c5ccccc54)c3)c2cc1OC`, for which the melting point is greater than 250 °C.
To `CC[C@@H](c1ccccc1)N(Cc1ccc(C(=O)O)c(F)c1)S(=O)(=O)c1ccc(Cl)cc1` belongs 95 to 97 °C.
The figure for `CCOC(=O)C(=O)Nc1c(Cl)cc(Cl)c(Cl)c1O` is 178 °C; for `Oc1ccc(O)c(C2(c3ccccc3)CC3CCC2C3)c1` (configuration not stated) it is 179 to 181 °C; for `Cc1cc(C)n(C(=O)CNS(=O)(=O)c2ccc(Cl)cc2)n1` it is 135 to 136 °C.
As for `CC12CCC3c4ccc(C(=O)O)cc4CCC3C1CCC2C(=O)CCc1ccc(F)cc1` (configuration not stated), the melting point fell in the range of 224 to 227 °C.
Regarding `Cc1cncc(Oc2cccc(NC(=O)N3CCc4c(cnc5[nH]nc(Br)c45)C3)c2)n1`, the melting point fell in the range of 221 to 223 °C.
With `CC(=O)SCC1(CSC(C)=O)C(=O)N2CCCC(C(=O)OC(C)(C)C)N2C1=O` (configuration not stated), the melting point lay in the range of 85 to 86 °C.
In turn, `CCCC(NC(=O)C1CC(=O)c2cc(F)ccc2O1)c1ccccc1` (single isomer, unassigned; (+)) showed a melting point of 138 °C.
In the case of `COc1cc(CO)cc(OC)c1Br`, the melting point was 100 to 102 °C.
`CCC(COC)n1nnc2c(Nc3ccc(C(C)=O)cc3Br)nc(C)nc21` (configuration not stated) yielded a melting point of 133 to 134 °C.
Compound `CC(=O)c1cccc(C(=O)O)c1O` registered a melting point of 135 to 136 °C.
As for `CCCCCCc1nc2c(N)nc3ccccc3c2n1CCCCNC(=O)Nc1ccccc1`, the melting point was 170 to 172 °C.
The compound `CC(=O)OC1CSC(Oc2ccc(-c3cncc(Cl)c3)nc2)C(OC(C)=O)C1OC(C)=O` (configuration not stated) yielded a melting point of 203 to 205 °C.
As for `O=C(O)[C@H](Cc1c[nH]c2ccccc12)NS(=O)(=O)c1ccc(N2CCC(c3ccccc3)CC2)cc1`, the melting point lay within 103 to 107 °C.
Compound `COc1cccc(Cc2cc3ccc4ccccc4n3n2)c1` returned a melting point of 82 to 84 °C.
In turn, `COc1c(C=O)c2cc(Cl)c(Cl)cc2n1C1CC(O)C(CO)O1` (configuration not stated) returned a melting point of 186 to 187 °C.
As for `CCOC(=O)C(Cc1cccnc1)c1nnc2c(CC(C)C)nc(-c3ccccc3)cn12` (configuration not stated), the melting point lay in the range of 110 to 111 °C.
For the compound `CC(=O)c1ccc2c(c1)C(C)(C)CC(=O)N2C`, the melting point fell in the range of 75 to 77 °C.
For `CCNCC(=O)N1c2ccccc2NC(=O)c2c1c(C)cn2C`, the melting point was 175 to 176 °C.
`O=C(Nc1cc(S(=O)(=O)NC(CO)CO)sc1Cl)c1cnn2c(C(F)(F)F)cc(-c3ccc(C(F)(F)F)cc3)nc12` returned a melting point of 225 °C.
`COC(=O)c1cc(I)c(F)c(I)c1Cl` showed a melting point of 155 °C.
To `CCOC(=O)C(=O)CC(=O)c1cn(Cc2ccc(F)cc2)c2cc(Cl)c(Cl)cc2c1=O` belongs 144 to 145 °C.
`C[C@@H](n1ncnn1)[C@](O)(Cn1ccnc1)c1ccc(F)cc1F`: the melting point lay within 158 to 160 °C.
`Cc1ccc(C)n1Nc1ccc(Cl)nn1` came in with a melting point of 173 to 175 °C.
Regarding `CCn1nc(OCC(=O)C(C)(C)C)c(-c2ccccc2)c1-c1ccc(S(C)(=O)=O)cc1`, the melting point is 158 to 161 °C.
To `O=C(O)[C@H](Cc1ccc(C(F)(F)F)cc1)[C@@H](O)c1ccc(F)cc1F` (racemic) belongs 120 to 121 °C; to `C=CCNC(=O)CN1CCN(Cc2ccc3c(c2)NC(=O)C(C)O3)CC1` (configuration not stated), 151 to 158 °C.
For the compound `OC(c1ccc(OC(F)(F)F)cc1)(c1ccc(OC(F)(F)F)cc1)C1CCN(Cc2c[nH]c3cccc(F)c23)CC1`, the melting point fell in the range of 76 to 88 °C.
For the compound `CN1C(=O)C2(COc3cc4c(cc32)OCCO4)c2c(NC(=O)c3ccccc3)cccc21` (configuration not stated), the melting point was in the range of 192 to 194 °C.
Compound `COc1ccc(C2CC(C(C)(C)C)=NN2c2ccc(C(=O)O)cc2)cc1` (configuration not stated) showed a melting point of 209 °C.
Compound `CCCc1c(OCC(C)CC(=O)NC(C)CCCc2cccnc2)ccc(C(C)=O)c1O` (configuration not stated) came in with a melting point of 77 to 83 °C.
The figure for `Cc1c(C)c2c(c(C)c1OC(=O)c1ccccc1)SC(C)O2` (configuration not stated) is 100 to 102 °C.
With `Cc1nc(NC(=O)Cc2ccsc2)c(Br)c(C)c1Br`, the melting point came to 157 °C.
Compound `CC1(C)C2CC[C@@]1(C)C(=O)C(C(=O)Nc1ccc(F)c(C(F)(F)F)c1)C2=O` (some centres not stated) gave a melting point of 96 to 98 °C.
As for `CCN(CC)CC1CCCCN1CC(=O)N1c2ccccc2NC(=O)c2ccccc21` (configuration not stated), the melting point is 171 to 172 °C.
